# Key:
# [1] = tested on: CA-18B (DNA, aptamer) GGGTGGGTGGGTTGGGGT; assay: fluorescence titration; conditions: 138 mM NaCl, 2.7 mM KCl, 2.5 mM MgCl2; 10 mM PBS pH 7.4, 0.05% TWEEN 20, 25 °C; compound 1 µM; nucleic acid up to 10 µM
# [2] = tested on: CA-40 (DNA, aptamer) ACGCTCCGGACTTGGGTGGGTGGGTTGGGGTACGGTGCGT; assay: fluorescence titration; conditions: 138 mM NaCl, 2.7 mM KCl, 2.5 mM MgCl2; 10 mM PBS pH 7.4, 0.05% TWEEN 20, 25 °C; compound 1 µM; 1:1 assumed
# [3] = tested on: CA-16 (DNA, aptamer) GGGTGGGTGGGTTGGG; assay: fluorescence titration; conditions: 138 mM NaCl, 2.7 mM KCl, 2.5 mM MgCl2, 10 mM PBS pH 7.4, 0.05% TWEEN 20, 25 °C, compound 1 µM
# [4] = tested on: CA-17 (DNA, aptamer) GGGTGGGTGGGTTGGGG; assay: fluorescence titration; conditions: 138 mM NaCl, 2.7 mM KCl, 2.5 mM MgCl2, 10 mM PBS pH 7.4, 0.05% TWEEN 20, 25 °C, compound 1 µM
# [5] = tested on: CA-70 (DNA, aptamer) GGTCAGCACGCTCCGGACTTGGGTGGGTGGGTTGGGGTACGGTGCGTAATGTGTCGCTGAGCCTGCCAAC; assay: fluorescence titration; conditions: 138 mM NaCl, 2.7 mM KCl, 2.5 mM MgCl2, 10 mM PBS pH 7.4, 0.05% TWEEN 20, 25 °C
# [6] = tested on: CA-18A (DNA, aptamer) TGGGTGGGTGGGTTGGGG; assay: fluorescence titration; conditions: 138 mM NaCl, 2.7 mM KCl, 2.5 mM MgCl2, 10 mM PBS pH 7.4, 0.05% TWEEN 20, 25 °C, compound 1 µM
# [7] = tested on: CA-19 (DNA, aptamer) GGGTGGGTGGGTTGGGGTA; assay: fluorescence titration; conditions: 138 mM NaCl, 2.7 mM KCl, 2.5 mM MgCl2; 10 mM PBS pH 7.4, 0.05% TWEEN 20, 25 °C; compound 1 µM; nucleic acid up to 10 µM
# [8] = tested on: CA-20 (DNA, aptamer) TGGGTGGGTGGGTTGGGGTA; assay: fluorescence titration; conditions: 138 mM NaCl, 2.7 mM KCl, 2.5 mM MgCl2; 10 mM PBS pH 7.4, 0.05% TWEEN 20, 25 °C; compound 1 µM; nucleic acid up to 10 µM
# [9] = tested on: CA-16 (DNA, aptamer) GGGTGGGTGGGTTGGG; assay: CD melting at 265 nm; conditions: 138 mM NaCl, 2.7 mM KCl, 2.5 mM MgCl2; 10 mM PBS pH 7.4; compound 10 µM, nucleic acid 10 µM; Tm without compound 73 °C
# [10] = tested on: CA-23B (DNA, aptamer) TTTTGGGTGGGTGGGTTGGGGTA; assay: fluorescence titration; conditions: 138 mM NaCl, 2.7 mM KCl, 2.5 mM MgCl2; 10 mM PBS pH 7.4, 0.05% TWEEN 20, 25 °C; compound 1 µM; nucleic acid up to 10 µM
# [11] = tested on: CA-23A (DNA, aptamer) ACTTGGGTGGGTGGGTTGGGGTA; assay: fluorescence titration; conditions: 138 mM NaCl, 2.7 mM KCl, 2.5 mM MgCl2; 10 mM PBS pH 7.4, 0.05% TWEEN 20, 25 °C; compound 1 µM; 1:1 assumed
# [12] = tested on: CA-19 (DNA, aptamer) GGGTGGGTGGGTTGGGGTA; assay: fluorescence polarization; conditions: 138 mM NaCl, 2.7 mM KCl, 2.5 mM MgCl2; 10 mM PBS pH 7.4, 0.05% TWEEN 20, 25 °C; compound 1 µM; nucleic acid up to 10 µM
# [13] = tested on: CA-16 (DNA, aptamer) GGGTGGGTGGGTTGGG; assay: fluorescence polarization; conditions: 138 mM NaCl, 2.7 mM KCl, 2.5 mM MgCl2; 10 mM PBS pH 7.4, 0.05% TWEEN 20, 25 °C; compound 1 µM
SMILES,Kd [1] [µM],Kd [2] [µM],"Kd ([5]; compound 1 µM, 1:1 assumed) [µM]",Kd [7] [µM],Kd [8] [µM],Kd ([5]; nucleic acid up to 10 µM) [µM],other results
CC[C@@]1(O)C(=O)OCc2c1cc1n(c2=O)Cc2c-1nc1ccccc1c2CN1CCC(N)CC1,> 10,3.0 ± 0.2,3.6 ± 0.2,> 10,> 10,–,Kd ([3]; 1:1 assumed): 2.7 ± 0.3 µM; Kd ([4]; 1:1 assumed): 8.9 ± 1.0 µM; Kd ([6]; 1:1 assumed): 3.4 ± 0.3 µM
CC[C@@]1(O)C(=O)OCc2c1cc1n(c2=O)Cc2c-1nc1ccccc1c2CN1CCC(NC(=O)COCC(=O)NCCOCCOCCOCCOCCOCCOCCOCCOCCOCCOCCOCCN)CC1,> 10,3.0 ± 0.4,1.8 ± 0.3,> 10,> 10,–,binding [9]: yes; Kd [3]: 1.8 ± 0.3 µM; Kd ([4]; 1:1 assumed): 8.1 ± 0.9 µM; Kd [10]: > 10 µM; Kd [11]: 2.1 ± 0.9 µM; binding [12]: no; binding [13]: yes; Kd ([6]; 1:1 assumed): 6.0 ± 0.8 µM
CC[C@@]1(O)C(=O)OCc2c1cc1n(c2=O)Cc2cc3ccccc3nc2-1,> 10,5.6 ± 0.5,4.6 ± 0.3,> 10,> 10,–,Kd ([3]; 1:1 assumed): 4.2 ± 0.4 µM; Kd ([4]; nucleic acid up to 10 µM): > 10 µM; Kd ([6]; nucleic acid up to 10 µM): > 10 µM
Cc1cc2nc3c(=O)[nH]c(=O)nc-3n(C[C@H](O)[C@H](O)[C@H](O)COP(=O)(O)O)c2cc1C,–,–,–,–,–,–,Kd [5]: 8.5 µM

# The next lines start with results.
Kd [1] [µM],Kd [2] [µM],"Kd ([5]; compound 1 µM, 1:1 assumed) [µM]",Kd [7] [µM],Kd [8] [µM],Kd ([5]; nucleic acid up to 10 µM) [µM],SMILES,other results
–,–,–,–,–,> 10,O=C(O)Cc1ccc2[nH]c3ccccc3c(=O)c2c1,–
–,–,–,–,–,> 10,O=C1OC2(c3ccc(O)cc3Oc3cc(O)ccc32)c2ccccc21,–
–,–,–,–,–,> 10,O=c1c2ccccc2[nH]c2ccccc12,–

# From paper PMC3818834 (2013)
